Tested on: healthy adult subjects
Test: Part 1 SAD: treatment-emergent adverse events after single oral dose (N = 6 per dose)
Experimental: Part 1 of the study is a SAD evaluation in healthy subjects consisting of 6 cohorts: Cohorts 1-6 received powder-in-capsule or matching placebo. There were approximately 8 subjects per cohort. Dose levels were as follows:
No food was given for at least 4 hours after dose administration. Water was allowed ad libitum except for the time 1 hour before and 1 hour after study drug administration. Safety assessments including AEs, safety ECGs, vital signs, and clinical laboratory tests were conducted, and plasma PK samples were collected.
Adverse events (AEs) and serious adverse events (SAEs) were monitored continuously until the completion of the study.

CS(=O)(=O)N[C@H]1CCCN2C(=O)COc3ccccc3C3CCC(CC3)OCC12 (stereo partly drawn) [Compound A, N-[(4S,4aR,7α,10α)-1,2,3,4,4a,5,7,8,9,10,16,17-dodecahydro-17-oxo-7,10-ethanopyrido[1,2-d][1,7,4]benzodioxaazacyclotridecin-4-yl]methanesulfonamide]
AE Leading to Study Drug Discontinuation (1 mg): 0 n
Any SAEs (1 mg): 0 n
Any TEAE (1 mg): 4 n
Death (1 mg): 0 n
TEAE Anxiety (1 mg): 0 n
TEAE Aspartate aminotransferase increased (1 mg): 0 n
TEAE Back pain (1 mg): 0 n
TEAE Blood pressure increased (1 mg): 0 n
TEAE Dermatitis contact (1 mg): 1 n
TEAE Dizziness (1 mg): 0 n
TEAE Fatigue (1 mg): 0 n
TEAE Headache (1 mg): 0 n
TEAE Hot flush (1 mg): 0 n
TEAE Hypervigilance (1 mg): 0 n
TEAE Insomnia (1 mg): 0 n
TEAE Metamorphopsia (1 mg): 0 n
TEAE Nausea (1 mg): 0 n
TEAE Oropharyngeal pain (1 mg): 0 n
TEAE Pharyngitis (1 mg): 1 n
TEAE Pollakiuria (1 mg): 0 n
TEAE Skin hyperpigmentation (1 mg): 1 n
TEAE Upper respiratory tract infection (1 mg): 0 n
TEAE Urinary incontinence (1 mg): 0 n
TEAE Vision blurred (1 mg): 0 n
TEAE by Highest Relationship: Not Related (1 mg): 4 n
TEAE by Highest Relationship: Related (1 mg): 0 n
TEAE by Highest Severity: Mild (1 mg): 1 n
TEAE by Highest Severity: Moderate (1 mg): 3 n
TEAE by Highest Severity: Severe (1 mg): 0 n
AE Leading to Study Drug Discontinuation (3 mg): 0 n
Any SAEs (3 mg): 0 n
Any TEAE (3 mg): 0 n
Death (3 mg): 0 n
TEAE Anxiety (3 mg): 0 n
TEAE Aspartate aminotransferase increased (3 mg): 0 n
TEAE Back pain (3 mg): 0 n
TEAE Blood pressure increased (3 mg): 0 n
TEAE Dermatitis contact (3 mg): 0 n
TEAE Dizziness (3 mg): 0 n
TEAE Fatigue (3 mg): 0 n
TEAE Headache (3 mg): 0 n
TEAE Hot flush (3 mg): 0 n
TEAE Hypervigilance (3 mg): 0 n
TEAE Insomnia (3 mg): 0 n
TEAE Metamorphopsia (3 mg): 0 n
TEAE Nausea (3 mg): 0 n
TEAE Oropharyngeal pain (3 mg): 0 n
TEAE Pharyngitis (3 mg): 0 n
TEAE Pollakiuria (3 mg): 0 n
TEAE Skin hyperpigmentation (3 mg): 0 n
TEAE Upper respiratory tract infection (3 mg): 0 n
TEAE Urinary incontinence (3 mg): 0 n
TEAE Vision blurred (3 mg): 0 n
TEAE by Highest Relationship: Not Related (3 mg): 0 n
TEAE by Highest Relationship: Related (3 mg): 0 n
TEAE by Highest Severity: Mild (3 mg): 0 n
TEAE by Highest Severity: Moderate (3 mg): 0 n
TEAE by Highest Severity: Severe (3 mg): 0 n
AE Leading to Study Drug Discontinuation (8 mg): 0 n
Any SAEs (8 mg): 0 n
Any TEAE (8 mg): 1 n
Death (8 mg): 0 n
TEAE Anxiety (8 mg): 0 n
TEAE Aspartate aminotransferase increased (8 mg): 0 n
TEAE Back pain (8 mg): 0 n
TEAE Blood pressure increased (8 mg): 0 n
TEAE Dermatitis contact (8 mg): 0 n
TEAE Dizziness (8 mg): 0 n
TEAE Fatigue (8 mg): 0 n
TEAE Headache (8 mg): 0 n
TEAE Hot flush (8 mg): 0 n
TEAE Hypervigilance (8 mg): 0 n
TEAE Insomnia (8 mg): 0 n
TEAE Metamorphopsia (8 mg): 0 n
TEAE Nausea (8 mg): 0 n
TEAE Oropharyngeal pain (8 mg): 0 n
TEAE Pharyngitis (8 mg): 0 n
TEAE Pollakiuria (8 mg): 0 n
TEAE Skin hyperpigmentation (8 mg): 0 n
TEAE Upper respiratory tract infection (8 mg): 1 n
TEAE Urinary incontinence (8 mg): 0 n
TEAE Vision blurred (8 mg): 0 n
TEAE by Highest Relationship: Not Related (8 mg): 1 n
TEAE by Highest Relationship: Related (8 mg): 0 n
TEAE by Highest Severity: Mild (8 mg): 1 n
TEAE by Highest Severity: Moderate (8 mg): 0 n
TEAE by Highest Severity: Severe (8 mg): 0 n
AE Leading to Study Drug Discontinuation (15 mg): 0 n
Any SAEs (15 mg): 0 n
Any TEAE (15 mg): 4 n
Death (15 mg): 0 n
TEAE Anxiety (15 mg): 1 n
TEAE Aspartate aminotransferase increased (15 mg): 0 n
TEAE Back pain (15 mg): 0 n
TEAE Blood pressure increased (15 mg): 0 n
TEAE Dermatitis contact (15 mg): 0 n
TEAE Dizziness (15 mg): 2 n
TEAE Fatigue (15 mg): 0 n
TEAE Headache (15 mg): 0 n
TEAE Hot flush (15 mg): 1 n
TEAE Hypervigilance (15 mg): 1 n
TEAE Insomnia (15 mg): 1 n
TEAE Metamorphopsia (15 mg): 1 n
TEAE Nausea (15 mg): 0 n
TEAE Oropharyngeal pain (15 mg): 0 n
TEAE Pharyngitis (15 mg): 0 n
TEAE Pollakiuria (15 mg): 1 n
TEAE Skin hyperpigmentation (15 mg): 0 n
TEAE Upper respiratory tract infection (15 mg): 0 n
TEAE Urinary incontinence (15 mg): 0 n
TEAE Vision blurred (15 mg): 1 n
TEAE by Highest Relationship: Not Related (15 mg): 0 n
TEAE by Highest Relationship: Related (15 mg): 4 n
TEAE by Highest Severity: Mild (15 mg): 4 n
TEAE by Highest Severity: Moderate (15 mg): 0 n
TEAE by Highest Severity: Severe (15 mg): 0 n
AE Leading to Study Drug Discontinuation (25 mg): 0 n
Any SAEs (25 mg): 0 n
Any TEAE (25 mg): 4 n
Death (25 mg): 0 n
TEAE Anxiety (25 mg): 0 n
TEAE Aspartate aminotransferase increased (25 mg): 0 n
TEAE Back pain (25 mg): 0 n
TEAE Blood pressure increased (25 mg): 0 n
TEAE Dermatitis contact (25 mg): 0 n
TEAE Dizziness (25 mg): 4 n
TEAE Fatigue (25 mg): 1 n
TEAE Headache (25 mg): 0 n
TEAE Hot flush (25 mg): 0 n
TEAE Hypervigilance (25 mg): 0 n
TEAE Insomnia (25 mg): 0 n
TEAE Metamorphopsia (25 mg): 0 n
TEAE Nausea (25 mg): 0 n
TEAE Oropharyngeal pain (25 mg): 1 n
TEAE Pharyngitis (25 mg): 0 n
TEAE Pollakiuria (25 mg): 1 n
TEAE Skin hyperpigmentation (25 mg): 0 n
TEAE Upper respiratory tract infection (25 mg): 0 n
TEAE Urinary incontinence (25 mg): 0 n
TEAE Vision blurred (25 mg): 0 n
TEAE by Highest Relationship: Not Related (25 mg): 0 n
TEAE by Highest Relationship: Related (25 mg): 4 n
TEAE by Highest Severity: Mild (25 mg): 4 n
TEAE by Highest Severity: Moderate (25 mg): 0 n
TEAE by Highest Severity: Severe (25 mg): 0 n
AE Leading to Study Drug Discontinuation (50 mg): 0 n
Any SAEs (50 mg): 0 n
Any TEAE (50 mg): 2 n
Death (50 mg): 0 n
TEAE Anxiety (50 mg): 0 n
TEAE Aspartate aminotransferase increased (50 mg): 1 n
TEAE Back pain (50 mg): 0 n
TEAE Blood pressure increased (50 mg): 1 n
TEAE Dermatitis contact (50 mg): 0 n
TEAE Dizziness (50 mg): 2 n
TEAE Fatigue (50 mg): 0 n
TEAE Headache (50 mg): 1 n
TEAE Hot flush (50 mg): 0 n
TEAE Hypervigilance (50 mg): 0 n
TEAE Insomnia (50 mg): 0 n
TEAE Metamorphopsia (50 mg): 0 n
TEAE Nausea (50 mg): 2 n
TEAE Oropharyngeal pain (50 mg): 0 n
TEAE Pharyngitis (50 mg): 0 n
TEAE Pollakiuria (50 mg): 2 n
TEAE Skin hyperpigmentation (50 mg): 0 n
TEAE Upper respiratory tract infection (50 mg): 0 n
TEAE Urinary incontinence (50 mg): 1 n
TEAE Vision blurred (50 mg): 1 n
TEAE by Highest Relationship: Not Related (50 mg): 0 n
TEAE by Highest Relationship: Related (50 mg): 2 n
TEAE by Highest Severity: Mild (50 mg): 1 n
TEAE by Highest Severity: Moderate (50 mg): 1 n
TEAE by Highest Severity: Severe (50 mg): 0 n
AE Leading to Study Drug Discontinuation (Total (N = 36)): 0 n
Any SAEs (Total (N = 36)): 0 n
Any TEAE (Total (N = 36)): 15 n
Death (Total (N = 36)): 0 n
TEAE Anxiety (Total (N = 36)): 1 n
TEAE Aspartate aminotransferase increased (Total (N = 36)): 1 n
TEAE Back pain (Total (N = 36)): 0 n
TEAE Blood pressure increased (Total (N = 36)): 1 n
TEAE Dermatitis contact (Total (N = 36)): 1 n
TEAE Dizziness (Total (N = 36)): 8 n
TEAE Fatigue (Total (N = 36)): 1 n
TEAE Headache (Total (N = 36)): 1 n
TEAE Hot flush (Total (N = 36)): 1 n
TEAE Hypervigilance (Total (N = 36)): 1 n
TEAE Insomnia (Total (N = 36)): 1 n
TEAE Metamorphopsia (Total (N = 36)): 1 n
TEAE Nausea (Total (N = 36)): 2 n
TEAE Oropharyngeal pain (Total (N = 36)): 1 n
TEAE Pharyngitis (Total (N = 36)): 1 n
TEAE Pollakiuria (Total (N = 36)): 4 n
TEAE Skin hyperpigmentation (Total (N = 36)): 1 n
TEAE Upper respiratory tract infection (Total (N = 36)): 1 n
TEAE Urinary incontinence (Total (N = 36)): 1 n
TEAE Vision blurred (Total (N = 36)): 2 n
TEAE by Highest Relationship: Not Related (Total (N = 36)): 5 n
TEAE by Highest Relationship: Related (Total (N = 36)): 10 n
TEAE by Highest Severity: Mild (Total (N = 36)): 11 n
TEAE by Highest Severity: Moderate (Total (N = 36)): 4 n
TEAE by Highest Severity: Severe (Total (N = 36)): 0 n
Tolerability (single doses 1 to 50 mg): well tolerated

Reference: US20250186405A1, “Compound For Use In Treating Narcolepsy” (Alkermes, Inc., priority 2023, published 2025)
